This experiment concerns the target Arf-GAP with GTPase, ANK repeat and PH domain-containing protein 2 (Homo sapiens) (UniProt Q99490). The experiment can be described thus: ligand binding to human centaurin gamma 1 – biophysical, DSF, SYPRO orange, recombinant protein (AID 511). As to conditions: recombinant CENTG1, DSF SYPRO orange Tm shift; at 50000 µM; protein 4.5 µM; buffer 100 mM HEPES; pH 7.5; NaCl 150 mM; active compounds read high.

Sequence of Arf-GAP with GTPase, ANK repeat and PH domain-containing protein 2 (Homo sapiens) (Q99490 whole entry, looked up, the tested form may be a part): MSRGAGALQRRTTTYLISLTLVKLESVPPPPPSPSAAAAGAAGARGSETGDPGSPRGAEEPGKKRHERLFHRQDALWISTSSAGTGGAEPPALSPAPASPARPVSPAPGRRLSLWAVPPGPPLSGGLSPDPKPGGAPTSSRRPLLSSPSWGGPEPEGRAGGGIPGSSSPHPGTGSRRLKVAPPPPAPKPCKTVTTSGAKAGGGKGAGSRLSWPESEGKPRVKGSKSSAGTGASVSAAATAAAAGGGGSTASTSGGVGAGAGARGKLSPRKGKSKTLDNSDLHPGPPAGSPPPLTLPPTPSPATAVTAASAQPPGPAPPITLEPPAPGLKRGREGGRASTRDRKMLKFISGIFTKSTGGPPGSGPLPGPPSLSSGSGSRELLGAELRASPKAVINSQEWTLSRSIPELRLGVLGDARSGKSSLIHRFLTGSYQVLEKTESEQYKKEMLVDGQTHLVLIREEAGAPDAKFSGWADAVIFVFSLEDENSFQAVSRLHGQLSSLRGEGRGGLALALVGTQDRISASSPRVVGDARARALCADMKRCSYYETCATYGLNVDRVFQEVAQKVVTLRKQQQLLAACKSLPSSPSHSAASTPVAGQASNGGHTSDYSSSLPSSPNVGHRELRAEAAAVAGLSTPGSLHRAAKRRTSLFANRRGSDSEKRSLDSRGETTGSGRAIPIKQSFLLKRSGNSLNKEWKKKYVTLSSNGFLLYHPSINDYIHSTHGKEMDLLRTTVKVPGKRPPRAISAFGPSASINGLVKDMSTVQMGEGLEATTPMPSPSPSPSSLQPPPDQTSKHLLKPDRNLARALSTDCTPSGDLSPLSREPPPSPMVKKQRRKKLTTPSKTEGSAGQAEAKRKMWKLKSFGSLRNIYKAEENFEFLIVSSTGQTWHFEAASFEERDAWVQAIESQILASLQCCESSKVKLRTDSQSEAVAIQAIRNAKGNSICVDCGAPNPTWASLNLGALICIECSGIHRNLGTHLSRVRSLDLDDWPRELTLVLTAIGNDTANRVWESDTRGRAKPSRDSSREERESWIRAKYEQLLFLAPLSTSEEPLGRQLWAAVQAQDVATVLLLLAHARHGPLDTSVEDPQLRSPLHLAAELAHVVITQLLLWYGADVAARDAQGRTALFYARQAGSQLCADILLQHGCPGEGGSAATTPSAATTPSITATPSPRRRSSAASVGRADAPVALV

Take `NC(CS)C(=O)O` (stereo unspecified): the Tm shift was 3.9 Celsius.

(Values after PubChem BioAssay AID511.)
